Measured values reported in PubChem BioAssay (NCI).
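1) Cells in 96-well plates. 2) Compound, 48 h, 5 concentrations. 3) Linear interpolation between surrounding doses. 4) Unreached endpoint = highest concentration. Abbreviation: GI50, concentration required for 50% inhibition of growth. The concentration for full growth arrest is given as TGI.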

How the values were obtained:
Test in all cases: NCI anticancer screen, dose series, 48 h; in the data active means GI50 below about 0.43 µM; inactive means the rest
HL-60(TB) leukemia = test system: HL-60(TB) leukemia
DMS 114 small cell lung = test system: DMS 114 small cell lung
MOLT-4 leukemia = test system: MOLT-4 leukemia
SK-OV-3 ovarian = test system: SK-OV-3 ovarian
SF-268 CNS = test system: SF-268 CNS
IGROV1 ovarian = test system: IGROV1 ovarian
SW-620 colon = test system: SW-620 colon
OVCAR-8 ovarian = test system: OVCAR-8 ovarian
HOP-62 NSCLC = test system: HOP-62 NSCLC
SK-MEL-28 melanoma = test system: SK-MEL-28 melanoma
UACC-62 melanoma = test system: UACC-62 melanoma
HCT-116 colon = test system: HCT-116 colon
NCI-H226 lung = test system: NCI-H226 lung
U251 CNS = test system: U251 CNS
786-0 renal = test system: 786-0 renal
SN12C renal = test system: SN12C renal
SNB-19 CNS = test system: SNB-19 CNS
SNB-75 CNS = test system: SNB-75 CNS
CAKI-1 renal = test system: CAKI-1 renal
K-562 leukemia = test system: K-562 leukemia
OVCAR-3 ovarian = test system: OVCAR-3 ovarian
ACHN renal = test system: ACHN renal
UO-31 renal = test system: UO-31 renal
NCI-H522 lung = test system: NCI-H522 lung
SNB-78 CNS = test system: SNB-78 CNS
COLO 205 colon = test system: COLO 205 colon
HOP-18 NSCLC = test system: HOP-18 NSCLC
SR leukemia = test system: SR leukemia
SF-539 CNS = test system: SF-539 CNS
NCI-H460 lung = test system: NCI-H460 lung
TK-10 renal = test system: TK-10 renal
SK-MEL-5 melanoma = test system: SK-MEL-5 melanoma
UACC-257 melanoma = test system: UACC-257 melanoma
HCC-2998 colon = test system: HCC-2998 colon
MALME-3M melanoma = test system: MALME-3M melanoma
DMS 273 small cell lung = test system: DMS 273 small cell lung
CCRF-CEM leukemia = test system: CCRF-CEM leukemia
EKVX NSCLC = test system: EKVX NSCLC
SF-295 CNS = test system: SF-295 CNS
RPMI-8226 leukemia = test system: RPMI-8226 leukemia
OVCAR-4 ovarian = test system: OVCAR-4 ovarian
KM12 colon = test system: KM12 colon
DLD-1 colon = test system: DLD-1 colon
HOP-92 NSCLC = test system: HOP-92 NSCLC
HCT-15 colon = test system: HCT-15 colon
M19-MEL melanoma = test system: M19-MEL melanoma
A498 renal = test system: A498 renal
RXF-631 renal = test system: RXF-631 renal
OVCAR-5 ovarian = test system: OVCAR-5 ovarian
NCI-H23 lung = test system: NCI-H23 lung
SK-MEL-2 melanoma = test system: SK-MEL-2 melanoma
M14 melanoma = test system: M14 melanoma
HT29 colon = test system: HT29 colon
RXF 393 renal = test system: RXF 393 renal
KM20L2 colon = test system: KM20L2 colon
A549 NSCLC = test system: A549 NSCLC
LXFL 529 NSCLC = test system: LXFL 529 NSCLC
LOX IMVI melanoma = test system: LOX IMVI melanoma

Cn1c(=O)c2c(nc3n2C(CCl)CO3)n(C)c1=O (stereo unspecified)
> 100 µM: TGI (HL-60(TB) leukemia) | TGI (DMS 114 small cell lung) | TGI (MOLT-4 leukemia) | TGI (SK-OV-3 ovarian) | TGI (SF-268 CNS) | TGI (IGROV1 ovarian) | TGI (SW-620 colon) | TGI (OVCAR-8 ovarian) | TGI (HOP-62 NSCLC) | TGI (SK-MEL-28 melanoma) | TGI (UACC-62 melanoma) | TGI (HCT-116 colon) | TGI (NCI-H226 lung) | TGI (U251 CNS) | TGI (786-0 renal) | TGI (SN12C renal) | TGI (SNB-19 CNS) | TGI (SNB-75 CNS) | TGI (CAKI-1 renal) | TGI (K-562 leukemia) | TGI (OVCAR-3 ovarian) | TGI (ACHN renal) | TGI (UO-31 renal) | TGI (NCI-H522 lung) | TGI (SNB-78 CNS) | TGI (COLO 205 colon) | TGI (HOP-18 NSCLC) | TGI (SR leukemia) | TGI (SF-539 CNS) | TGI (NCI-H460 lung) | TGI (TK-10 renal) | TGI (SK-MEL-5 melanoma) | TGI (UACC-257 melanoma) | TGI (HCC-2998 colon) | TGI (MALME-3M melanoma) | TGI (DMS 273 small cell lung) | TGI (CCRF-CEM leukemia) | TGI (EKVX NSCLC) | TGI (SF-295 CNS) | TGI (RPMI-8226 leukemia) | TGI (OVCAR-4 ovarian) | TGI (KM12 colon) | TGI (DLD-1 colon) | TGI (HOP-92 NSCLC) | TGI (HCT-15 colon) | TGI (M19-MEL melanoma) | TGI (A498 renal) | TGI (RXF-631 renal) | TGI (OVCAR-5 ovarian) | TGI (NCI-H23 lung) | TGI (SK-MEL-2 melanoma) | TGI (M14 melanoma) | TGI (HT29 colon)

Cc1ccc(NC(=O)CCC(=O)C2CC(=O)CCC2=O)cc1C (stereo unspecified)
> 100 µM: TGI (HL-60(TB) leukemia) | TGI (DMS 114 small cell lung) | TGI (MOLT-4 leukemia) | TGI (SK-OV-3 ovarian) | TGI (SF-268 CNS) | TGI (IGROV1 ovarian) | TGI (SW-620 colon) | TGI (RXF 393 renal) | TGI (KM20L2 colon) | TGI (OVCAR-8 ovarian) | TGI (HOP-62 NSCLC) | TGI (SK-MEL-28 melanoma) | TGI (UACC-62 melanoma) | TGI (HCT-116 colon) | TGI (NCI-H226 lung) | TGI (U251 CNS) | TGI (786-0 renal) | TGI (SN12C renal) | TGI (SNB-19 CNS) | TGI (A549 NSCLC) | TGI (CAKI-1 renal) | TGI (K-562 leukemia) | TGI (OVCAR-3 ovarian) | TGI (ACHN renal) | TGI (UO-31 renal) | TGI (SNB-78 CNS) | TGI (COLO 205 colon) | TGI (HOP-18 NSCLC) | TGI (LXFL 529 NSCLC) | TGI (SF-539 CNS) | TGI (NCI-H460 lung) | TGI (TK-10 renal) | TGI (SK-MEL-5 melanoma) | TGI (UACC-257 melanoma) | TGI (HCC-2998 colon) | TGI (LOX IMVI melanoma) | TGI (MALME-3M melanoma) | TGI (DMS 273 small cell lung) | TGI (CCRF-CEM leukemia) | TGI (EKVX NSCLC) | TGI (SF-295 CNS) | TGI (OVCAR-4 ovarian) | TGI (KM12 colon) | TGI (DLD-1 colon) | TGI (HOP-92 NSCLC) | TGI (HCT-15 colon) | TGI (M19-MEL melanoma) | TGI (RXF-631 renal) | TGI (OVCAR-5 ovarian) | TGI (NCI-H23 lung) | TGI (SK-MEL-2 melanoma) | TGI (M14 melanoma) | TGI (HT29 colon)

CC(=O)[CH-]C(=O)c1ccccc1.CC(=O)[CH-]C(=O)c1ccccc1.[O-]Cc1cccs1.[O-]Cc1cccs1.[Ti+4]
58 µM: TGI (LOX IMVI melanoma)
46.2 µM: TGI (HCT-15 colon)
> 100 µM: TGI (HL-60(TB) leukemia) | TGI (MOLT-4 leukemia) | TGI (SK-OV-3 ovarian) | TGI (SF-268 CNS) | TGI (IGROV1 ovarian) | TGI (SW-620 colon) | TGI (KM20L2 colon) | TGI (OVCAR-8 ovarian) | TGI (HOP-62 NSCLC) | TGI (SK-MEL-28 melanoma) | TGI (UACC-62 melanoma) | TGI (HCT-116 colon) | TGI (NCI-H226 lung) | TGI (U251 CNS) | TGI (786-0 renal) | TGI (SN12C renal) | TGI (SNB-19 CNS) | TGI (SNB-75 CNS) | TGI (A549 NSCLC) | TGI (CAKI-1 renal) | TGI (K-562 leukemia) | TGI (OVCAR-3 ovarian) | TGI (ACHN renal) | TGI (UO-31 renal) | TGI (NCI-H522 lung) | TGI (LXFL 529 NSCLC) | TGI (SF-539 CNS) | TGI (NCI-H460 lung) | TGI (SK-MEL-5 melanoma) | TGI (UACC-257 melanoma) | TGI (HCC-2998 colon) | TGI (MALME-3M melanoma) | TGI (EKVX NSCLC) | TGI (OVCAR-4 ovarian) | TGI (KM12 colon) | TGI (M19-MEL melanoma) | TGI (A498 renal) | TGI (OVCAR-5 ovarian) | TGI (SK-MEL-2 melanoma) | TGI (M14 melanoma)
46.6 µM: TGI (HT29 colon)
71.3 µM: TGI (RPMI-8226 leukemia)
inactive: GI50 (HL-60(TB) leukemia) 4.26 µM | GI50 (MOLT-4 leukemia) > 100 µM | GI50 (SK-OV-3 ovarian) > 100 µM | GI50 (SF-268 CNS) > 100 µM | GI50 (IGROV1 ovarian) 89.9 µM | GI50 (SW-620 colon) 49.9 µM | GI50 (KM20L2 colon) 19.8 µM | GI50 (OVCAR-8 ovarian) > 100 µM | GI50 (HOP-62 NSCLC) > 100 µM | GI50 (SK-MEL-28 melanoma) 43.8 µM | GI50 (UACC-62 melanoma) 18 µM | GI50 (HCT-116 colon) 33 µM | GI50 (NCI-H226 lung) 82.3 µM | GI50 (U251 CNS) > 100 µM | GI50 (786-0 renal) > 100 µM | GI50 (SN12C renal) 36.8 µM | GI50 (SNB-19 CNS) > 100 µM | GI50 (SNB-75 CNS) 73.1 µM | GI50 (A549 NSCLC) 97.9 µM | GI50 (CAKI-1 renal) 71.6 µM | GI50 (K-562 leukemia) 31.2 µM | GI50 (OVCAR-3 ovarian) > 100 µM | GI50 (ACHN renal) > 100 µM | GI50 (UO-31 renal) > 100 µM | GI50 (NCI-H522 lung) 54.2 µM | GI50 (LXFL 529 NSCLC) 25.3 µM | GI50 (SF-539 CNS) 71.2 µM | GI50 (NCI-H460 lung) 29.4 µM | GI50 (SK-MEL-5 melanoma) > 100 µM | GI50 (UACC-257 melanoma) > 100 µM | GI50 (HCC-2998 colon) > 100 µM | GI50 (LOX IMVI melanoma) 18.1 µM | GI50 (MALME-3M melanoma) > 100 µM | GI50 (EKVX NSCLC) 37.4 µM | GI50 (SF-295 CNS) 10.6 µM | GI50 (RPMI-8226 leukemia) 27.1 µM | GI50 (OVCAR-4 ovarian) > 100 µM | GI50 (KM12 colon) 47.9 µM | GI50 (HCT-15 colon) 20 µM | GI50 (M19-MEL melanoma) 82 µM | GI50 (A498 renal) > 100 µM | GI50 (OVCAR-5 ovarian) 38.2 µM | GI50 (SK-MEL-2 melanoma) > 100 µM | GI50 (M14 melanoma) 21.6 µM | GI50 (HT29 colon) 17.5 µM
71.9 µM: TGI (SF-295 CNS)
